In PMC8955853, “New Sorbicillinoids with Tea Pathogenic Fungus Inhibitory Effect from Marine-Derived Fungus Hypocrea jecorina H8” (Marine Drugs, 2022):
In brackets after ≈: the same amount, converted by molar mass. Entries after “also recorded” stand apart in the source; their conditions may differ. Like-named read-outs stand apart in the source and are kept apart here.

Tests used:
zebrafish embryos = test: Zebrafish embryotoxicity and developmental toxicity assay; assay type: in vivo; conditions: for change of effect on zebrafish embryo mortality when treatment prolonged to 72 h: 72 h versus 24 h (Figure 4b); for effects on mortality rate and malformation of zebrafish: 0.625 μM for 24 h and 10 μM for 72 h (Figure 4c)
Method: Figure 4 Embryotoxicity and developmental toxicity assay; 15 zebrafish embryos per condition were exposed to compounds at the concentrations of 10, 5, 2.5, 1.25, and 0.625 μM, and 0.1% DMSO was used as blank control. (a) The mortality rate of 24 embryo treated with compounds; (b) The mortality rate of 72 embryo treated with compounds; (c) The impact on the malformation of zebrafish treated with compounds) The statistics of 24 and 72 h mortality rate; © Morphology of 24 h embryo or 72 h zebrafish larvae treated with compounds or control.
Wild-type (AB strain) zebra fish (Danio rerio) were used in this test. Compounds 5, 6, 8, 9, and 10 were dissolved in DMSO (10 mM) and stored at −20 °C. Toxicity evaluations were analyzed regarding the anti-proliferative effects on embryos according to the literature. In brief, 15 zebrafish embryos per condition were exposed to compounds at the concentrations of 10, 5, 2.5, 1.25, and 0.625 μM, and 0.1% DMSO was used as the vehicle control. A Leica stereomicroscope was used to observe the embryos every 24 h.

Pestalotiopsis theae = test: Antifungal activity assay, growth inhibition of tea pathogenic fungus; assay type: cell-based; conditions: for IC50: Pseudopestalotiopsis theae, read-out: ED50, antifungal activity against Pestalotiopsis theae; for fold stronger anti-tea pathogenic fungus effect than hexaconazole: compared to positive control hexaconazole (24.25 ± 1.57 µg/mL)
Method: Compounds 1 to 11 were evaluated for antifungal activities by a paper disc inhibition assay.
Initial evaluations of the antifungal activity of the purified compounds were conducted against tea pathogenic fungus P. theae in six-well microplates as described by Xia Yan with certain modifications. The final concentrations of each compound in the wells were 80, 40, 20, 10, 5, and 2.5 µg/mL (two-fold dilutions). DMSO and hexaconazole were used as a blank control and positive control, respectively. The ED50 (μg/mL) values were calculated statistically using Probit analyses.

[1] = tested at 80, 40, 20, 10, 5 and 2.5 µg/mL, Probit analysis

| Molecule | change of effect on zebrafish embryo mortality when treatment prolonged to 72 h (zebrafish embryos) | IC50 (Pestalotiopsis theae; [1]) | also measured |
| --- | --- | --- | --- |
| C/C=C/CCC(=O)c1cc(C)c(O)c(C)c1O [Compound 6, 2′,3′-dihydrosorbicillin] | did not change greatly | 2.04 ± 1.24 µg/mL (≈ 8.71 µM) |  |
| CC=CC=CC(O)CC1C2(C)OC(=O)C1(CC)C(CC(C)O)=C(C)C2=O (stereo not drawn) [Compound 2, trichodermolide D] |  | > 100 µg/mL |  |
| CCC12C(=O)OC(C)(C(=O)C(C)=C1CC(C)=O)C2CC(=O)C=CC=CCO (stereo not drawn) [Compound 1, trichodermolide C] |  | > 100 µg/mL |  |
| CC=CC=CC(O)=C1CC(C)(O)C2(O)OC3(C)C(O)=C(C)C(=O)C(=C(O)C=CC=CC)C3C2(C)C1=O (stereo not drawn) [Compound 5, isobisvertinol A] | did not change greatly | 9.13 ± 1.25 µg/mL (≈ 18.3 µM) | effects on mortality rate and malformation of zebrafish (zebrafish embryos): greater effects than other compounds; fold stronger anti-tea pathogenic fungus effect than hexaconazole (Pestalotiopsis theae): ~3 fold |
| Cc1cc(C(=O)/C=C/C=C/CO)c(O)c(C)c1O [Compound 9, (2E,4E)-1-(2,4-dihydroxy-3,5-dimethylphenyl)-6-hydroxyhexa-2,4-dien-1-one] | did not change greatly | 1.83 ± 1.37 µg/mL (≈ 7.37 µM) | fold stronger anti-tea pathogenic fungus effect than hexaconazole (Pestalotiopsis theae): 13 fold |
| CCCCC(O)(Cn1cncn1)c1ccc(Cl)cc1Cl (stereo not drawn) [hexaconazole, reference compound] |  | 24.2 ± 1.57 µg/mL (≈ 77.2 µM) |  |
| CC=CC=CC(O)=C1C(=O)C2(C)C3C(=C(O)CC(O)C=CC)C(=O)C4(C)C1C1(C)OC4(O)C3(C)OC12O (stereo not drawn) [Compound 3, 7,7′,9′-hydroxy-trichodimerol] |  |  | IC50 (Pestalotiopsis theae): > 100 µg/mL |
| C/C=C/C=C/C(=O)c1cc(C)c(O)c(C)c1O [Compound 8, sorbicillin] |  | 18.2 ± 1.29 µg/mL (≈ 78.4 µM) | zebrafish embryos killed (zebrafish embryos; 0.625 μM for 24 h): more than 50%; effects on mortality rate and malformation of zebrafish (zebrafish embryos): greater effects than other compounds; mortality rate of zebrafish embryo (zebrafish embryos; 0.625 μM, 72 h (Figure 4b)): ~60%; zebrafish embryos killed (zebrafish embryos; 10 μM for 72 h): more than 50% |
| C/C=C/C=C/C(=O)c1cc(C)c(O)cc1O [Compound 7, 6-demethylsorbicillin] |  | > 100 µg/mL |  |
| trichodimerol [Compound 10] | did not change greatly |  | toxicity to zebrafish eggs, embryos or larvae (overall, in words) (zebrafish embryos; 10, 5, 2.5, 1.25 and 0.625 μM, observed every 24 h): low toxicity; also recorded: much lower toxicity; ED50, antifungal activity against Pestalotiopsis theae (Pestalotiopsis theae; [1]): 4.68 ± 1.44 µg/mL |
| Cc1cc(C(=O)CC(O)C(O)C(C)O)c(O)c(C)c1O (stereo not drawn) [Compound 4, 1-(2,4-dihydroxy-3,5-dimethylphenyl)-3,4,5-trihydroxyhexan-1-one] |  | > 100 µg/mL |  |
| C/C=C/C=C/C(O)=C1\C[C@](C)(O)[C@]2(O)O[C@]3(C)C(O)=C(C)C(=O)/C(=C(O)/C=C/C=C/C)[C@@H]3[C@]2(C)C1=O [Compound 11, bisvertinol] |  | > 100 µg/mL |  |
